Measurements taken from PMC6950057, “Toxicity, Pharmacokinetics, and Gut Microbiome of Oral Administration of Sesterterpene MHO7 Derived from a Marine Fungus” (Marine Drugs, 2019).
Where two headings read alike, the source gives them in different places.

Columns and labels:
[1] = Log D by shaking flask method (n-octanol/phosphate buffer); type: physicochemical; settings: 37 °C
Experimental: An HPLC system (Shimadzu, Japan) was equipped with a LC-20AD binary pump system, a SIL-20AD auto sampler, a CBM-20A system controller, and a CTO-20A oven. Separation of MHO7 and IS from endogenous substances was carried out on an Agilent Zorbax XDB C18 column (5 μm, 250 × 4.6 mm, Agilent, Pal Alto, CA, USA), which was kept at 30 °C. The mobile phase was composed of 30% phase A (water) and 70% phase B (acetonitrile) with a flow rate of 1 mL·min^−1. The inject volume of the sample solution was 10 μL.
The phases of distilled water and n-octanol were saturated with each other by shaking for 48 h with 250 rpm in a shaking water bath prior to use. Solutions of MHO7 was prepared in concentration of 10 mM·L^−1 in n-octanol. Accurately measured amounts of the two solvents with necessary quantity of MHO7 were placed in a 5.0 mL centrifuge tube; then, the mixture was carried out at 250 rpm and designated temperature in the shaking water bath for 48 h to afford complete phase separation. The samples of both phases were collected at 0, 4, 8, 12, 24, 30, 36 and 48 h, diluted with methanol (1:1, V) and determined by HPLC with the detection wavelength of 234 nm. Each set of solvent systems for experimental logP/D value was the mean of the three determinations.

[2] = Plasma pharmacokinetics after single oral dose; type: in vivo; settings: mice plasma, single oral 500 mg·kg^−1, female mice
Experimental: Ninety female KM mice of 8–10 weeks of age (20–22 g) were divided randomly into 15 groups, and, after fasting for 12 h, the mice in other experiments were oral administrated at the dose of 500 mg·kg^−1 bw. About 500 μL blood samples were collected at 0.5, 1, 2, 3, 4, 5, 6, 8, 10, 12, 16, 20, 24, 30 and 36 h into heparinized tubes after the intragastric administration of MHO7. All blood samples were immediately centrifuged at 8000 g for 5 min and the resulting plasma was transferred and then processed as described in sample preparation for the analysis by LC-MS/MS. MHO7 levels in plasma were quantified by HPLC–MS/MS. The calibration curve was constructed by plotting the peak area ratio of MHO7 to the internal standard and the linearity was determined by weighted (1/x) linear regression analysis. The regression equation of the calibration curve was then used to calculate the concentration of MHO7 in the plasma. QC samples and standard curve series solutions were prepared in the same way of blank plasma. The concentrations of HQC, MQC, and LQC were 5, 0.5, and 0.05 μM·L^−1, respectively, and the concentrations of standard curve series solutions were 5, 2.5, 1, 0.5, 0.25, 0.1, 0.05, and 0.01 μM·L^−1.
Data for each group are presented as mean ± SD. Statistical significance of different formulations were measured by one-way analysis of variance (ANOVA) followed by the Tukey Kramer multiple comparison test, using SPSS software version 14.0 (SPSS, Chicago, IL, USA), and the statistical significance was expressed by a p-value of less than 0.05. The main pharmacokinetic parameters of MHO7 was fitted by the average mean of a group in each time point with the Phoenix WinNonLin software version 6.3 (Pharsight, Cary, NC, USA). The gut microbiome analysis was performed using the free online platform of Majorbio Cloud Platform (www.majorbio.com).

CC(C)=C/C=C/[C@H](C)[C@H]1CC[C@]2(C)C[C@@H]3C(C)=CC(=O)[C@H]3/C(C=O)=C\C[C@@H]12 [MHO7, 6-epi-ophiobolin G]
logD at 4 h ([1]; octanol/PBS pH 1.5, 4 h, read-out: Log P/D Value O/P (pH 1.5)): 1.29 ± 0.02
logD at 8 h ([1]; octanol/PBS pH 1.5, 8 h, read-out: Log P/D Value O/P (pH 1.5)): 1.22 ± 0.04
logD at 12 h ([1]; octanol/PBS pH 1.5, 12 h, read-out: Log P/D Value O/P (pH 1.5)): 1.13 ± 0.03
logD at 24 h ([1]; octanol/PBS pH 1.5, 24 h, read-out: Log P/D Value O/P (pH 1.5)): 1.13 ± 0.02
logD at 30 h ([1]; octanol/PBS pH 1.5, 30 h, read-out: Log P/D Value O/P (pH 1.5)): 1.12 ± 0.15
logD at 36 h ([1]; octanol/PBS pH 1.5, 36 h, read-out: Log P/D Value O/P (pH 1.5)): 1.12 ± 0.03
logD at 48 h ([1]; octanol/PBS pH 1.5, 48 h, read-out: Log P/D Value O/P (pH 1.5)): 1.12 ± 0.03
logD at 4 h ([1]; octanol/PBS pH 5.0, 4 h, read-out: Log P/D Value O/P (pH 5.0)): 1.15 ± 0.02
logD at 8 h ([1]; octanol/PBS pH 5.0, 8 h, read-out: Log P/D Value O/P (pH 5.0)): 1.03 ± 0.05
logD at 12 h ([1]; octanol/PBS pH 5.0, 12 h, read-out: Log P/D Value O/P (pH 5.0)): 0.95 ± 0.03
logD at 24 h ([1]; octanol/PBS pH 5.0, 24 h, read-out: Log P/D Value O/P (pH 5.0)): 0.95 ± 0.04
logD at 30 h ([1]; octanol/PBS pH 5.0, 30 h, read-out: Log P/D Value O/P (pH 5.0)): 0.95 ± 0.03
logD at 36 h ([1]; octanol/PBS pH 5.0, 36 h, read-out: Log P/D Value O/P (pH 5.0)): 0.93 ± 0.03
logD at 48 h ([1]; octanol/PBS pH 5.0, 48 h, read-out: Log P/D Value O/P (pH 5.0)): 0.93 ± 0.02
logD at 4 h ([1]; octanol/PBS pH 7.4, 4 h, read-out: Log P/D Value O/P (pH 7.4)): 1.39 ± 0.03
logD at 8 h ([1]; octanol/PBS pH 7.4, 8 h, read-out: Log P/D Value O/P (pH 7.4)): 1.37 ± 0.05
logD at 12 h ([1]; octanol/PBS pH 7.4, 12 h, read-out: Log P/D Value O/P (pH 7.4)): 1.31 ± 0.03
logD at 24 h ([1]; octanol/PBS pH 7.4, 24 h, read-out: Log P/D Value O/P (pH 7.4)): 1.29 ± 0.02
logD at 30 h ([1]; octanol/PBS pH 7.4, 30 h, read-out: Log P/D Value O/P (pH 7.4)): 1.27 ± 0.04
logD at 36 h ([1]; octanol/PBS pH 7.4, 36 h, read-out: Log P/D Value O/P (pH 7.4)): 1.26 ± 0.05
logD at 48 h ([1]; octanol/PBS pH 7.4, 48 h, read-out: Log P/D Value O/P (pH 7.4)): 1.26 ± 0.01
AUC ([2]; KM, mouse): 10500 ng·h/mL
Cmax ([2]; KM, mouse): 1380 ng/mL
MRT ([2]; KM, mouse): 8.76 h
half-life ([2]; KM, mouse): 6.97 h
k el ([2]; KM, mouse, read-out: Lambda_z (converted)): 2.78e-05 s⁻¹
Tmax ([2]; female, KM, mouse, plasma, po, 500 mg/kg): ~8 h
V/F [2]: 479.02 L/kg
